Data set [1] concerns the target sigma-1 receptor. Further details: method as in PMID 34908391. To be noted: Figure 1; read-out: σ1R Ki; cited from earlier work.
Data set [2] concerns rats fed a palatable diet. The data set can be described thus: Plasma triglyceride and corticosterone levels in the model of excessive eating. Type of data set: in vivo, female Wistar rats. Particulars: KSK 10 mg/kg, phentermine 7 mg/kg. The procedure:
Blood was collected from the left carotid artery and then centrifuged at 600× g (15 min, 4 °C) to obtain plasma.
To determine plasma triglyceride levels, standard enzymatic and spectrophotometric tests (Cat. No 1-053-A150, Biomaxima S.A., Lublin, Poland) were used. The ELISA Kit (Item No. 501320, Cayman Chemical, Ann Arbor, MI, USA) was used to determine corticosterone levels in plasma.

A short description of data set [3]: Pharmacokinetic study, single i.p. dose, plasma LC-MS/MS. Type of data set: in vivo, rat. Particulars: for Tmax / Cmax / CL/F / MRT / half-life / k el / Vd/F: ip; for Tmax / Cmax / CL/F / MRT / half-life / k el / Vz/F (volume of distribution) / Vd/F: rat plasma, single i.p. dose of 10 mg/kg; for Cmax: n = 3, non-compartmental; for CL/F: read-out: CLS/F (clearance) (converted); for MRT: read-out: MRT (mean residence time); for half-life: read-out: t0.5λz (half-life) (converted); for k el: read-out: λz (terminal elimination rate constant) (converted); for Vz/F (volume of distribution) / Vd/F: 10 mg/kg; for Vd/F: rat, plasma, read-out: Vz/F (volume of distribution); for time at which maximal plasma concentration was attained (first sampling point): single i.p. dose of 10 mg/kg b.w. The procedure: Six rats divided into two experimental groups were used in pharmacokinetic experiments. Three days before the experiment, the rats’ jugular vein was cannulated allowing for multiple blood sampling from a single animal. The investigated compounds were administered i.p. at a single dose of 10 mg/kg. Blood samples (approximately 300 µL) were collected in Eppendorf tubes containing heparin at 5, 15, 30, 60, 120, 240, and 360 min after dosing. Plasma was harvested by centrifuging at 5000× g for 10 min and stored at −30 °C until bioanalysis.
Plasma concentrations of KSK-60 or KSK-74 were measured using the liquid chromatography tandem mass spectrometry (LC-MS/MS) method. The samples (50 μL) were deproteinized in a 1:3 (v/v) ratio with acetonitrile containing an internal standard (IS—pentoxifylline), briefly vortexed, and then centrifuged for 10 min at a speed of 8000× g (Eppendorf miniSpin centrifuge). The supernatant was transferred to autosampler vials and a sample volume of 10 μL was injected into the LC-MS/MS system.
Chromatographic separation was performed on the analytical column XBridge™ C18 (3 × 50 mm, 5 µm, Waters, Dublin, Ireland) using the Agilent 1100 HPLC system (Agilent Technologies, Waldbronn, Germany). The mobile phase containing 0.1% formic acid in acetonitrile and 0.1% formic acid in water was run at 0.3 mL/min in gradient mode. Mass spectrometric detection was performed on an Applied Biosystems MDS Sciex (Concord, ON, Canada) API 2000 triple quadrupole mass spectrometer. Electrospray ionization (ESI) in the positive ion mode was used for ion production. The tandem mass spectrometer was operated at unit resolution in the selected reaction monitoring mode (SRM), monitoring the transitions of the protonated molecular ions m/z 396 to 107 (CE 80 V) for KSK-60, m/z 424 to 107 (CE 80 V) for KSK-74, and m/z 279 to 181 (CE 55 V) for IS. Data acquisition and processing were performed using the Applied Biosystems Analyst version 1.6 software. The calibration curves were constructed by plotting the ratio of the peak area of the studied compound to IS versus drug concentration, and generated by weighted (1/x · x) linear regression analysis. The validated quantitation ranges were from 1 to 2000 ng/mL. The calculated accuracy and precision were within the ranges proposed by the guidelines for the validation of bioanalytical methods (FDA, EMA). No significant matrix effect was observed and there were no stability-related problems during the routine analysis of the samples.
Pharmacokinetic parameters were calculated by employing a non-compartmental approach using Monolix version 2019R1 (Antony, France: Lixoft SAS, 2019) software. The area under the mean plasma concentration versus time curve extrapolated to infinity (AUC0-inf) was estimated using the log/linear trapezoidal rule. AUMC0-inf was estimated by calculating the total area under the first-moment curve by combining the trapezoid calculation of AUMC0-t and the extrapolated area. The mean residence time (MRT) was calculated from AUMC0-inf/AUC0-inf. The terminal rate constant (λz) was calculated by log-linear regression of the drug concentration data in the terminal phase, and the terminal half-life (t1/2) was calculated as 0.693/λz. Clearance (CL/F) was estimated from the administered dose divided by AUC0-inf. The apparent volume of distribution during the terminal phase (Vz/F) was calculated from (CL/F)/λz.

Data set [4] has as its target T1, H3R (Homo sapiens, UniProt Q9Y5N1).
T1 construct: the Aequoscreen line co-expresses apoaequorin
The data set can be described thus: Affinity at the H3R (literature values). Type of data set: binding. Particulars: H3R Ki relative to sigma-2 Ki.

The subject of data set [5] is rats fed a palatable diet. Description: Intraperitoneal glucose tolerance test. Format: in vivo, female Wistar rats. Particulars: 10 mg/kg; for blood glucose levels after glucose load vs control animals fed palatable feed: glucose 1 g/kg i.p., 29th day. As for the experimental part: The test was conducted on the 29th day of the experiment. After twenty-eight administrations of the test compounds, the food was stopped for 20 h and then glucose tolerance was tested. Glucose (1 g/kg b.w.) was administered i.p.. Blood samples were obtained from the tail vein at the time points 0 (before glucose administration), 30, 60, and 120 min after administration. Glucose levels were measured with a glucometer (ContourTS, Bayer, Leverkusen, Germany, test stripes: ContourTS, Ascensia Diabetes care Poland Sp. z o. o., Poland, REF:84239666). The area under the curve (AUC) was calculated using the trapezoidal rule.

T1 sequence (Q9Y5N1 whole entry): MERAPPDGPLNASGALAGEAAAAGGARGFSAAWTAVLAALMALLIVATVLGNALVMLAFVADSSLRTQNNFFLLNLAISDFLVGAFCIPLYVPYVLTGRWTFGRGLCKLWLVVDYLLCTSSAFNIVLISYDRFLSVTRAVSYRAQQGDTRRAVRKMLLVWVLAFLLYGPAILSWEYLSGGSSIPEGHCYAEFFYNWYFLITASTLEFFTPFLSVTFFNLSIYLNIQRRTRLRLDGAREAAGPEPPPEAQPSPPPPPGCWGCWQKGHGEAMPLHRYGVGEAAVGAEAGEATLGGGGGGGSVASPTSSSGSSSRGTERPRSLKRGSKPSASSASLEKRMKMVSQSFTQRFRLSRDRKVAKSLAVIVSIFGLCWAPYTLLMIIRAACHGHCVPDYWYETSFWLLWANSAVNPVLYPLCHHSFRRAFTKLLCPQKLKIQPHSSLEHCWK

For `CCC(=O)c1ccc(OCCCCCCCCN2CCN(c3ccncc3)CC2)cc1` [KSK-74], in data set [1], the inhibition constant Ki (as a rule, the equilibrium dissociation constant of an inhibitor or competing ligand from its target) is 274 nM. Also, the “plasma triglyceride levels vs palatable diet + vehicle” value in data set [2] is reported as “lower plasma triglyceride levels”. For the same molecule, in data set [3], the Tmax – broadly, the time at which the peak concentration occurs – was determined as 4.98 min; the Cmax (usually the peak of the concentration-time curve) came out at 105 ng/mL; the CL/F was 2180 mL/min/kg; the MRT (as a rule, a mean duration of stay, worked out from the concentration-time curve) amounted to 2.45 h. Further, in data set [3], the half-life (in general, the time needed for the level to fall by half in the phase considered) was 2.71 h; the k el was 6.94e-05 s⁻¹; the “Vz/F (volume of distribution)” value stood at 513.14 L/kg; the Vd/F is 513 L/kg. The “time at which maximal plasma concentration was attained (first sampling point)” value in data set [3] came out at 5 min. Moreover, the “affinity ratio H3/sigma-2 receptors” value in data set [4] came to 0.59. In data set [5], the “area under the IPGTT curve (AUC) vs rats fed high-calorie feed” value is given as “decreased significantly” and the “blood glucose levels after glucose load vs control animals fed palatable feed” value is listed as “significantly lower at 30 or/and 60 min after glucose load”.
With `CCC(=O)c1ccc(OCCCCCCN2CCN(c3ccncc3)CC2)cc1` [KSK-60], the Ki in data set [1] is 248 nM. Further, the “plasma triglyceride levels vs palatable diet + vehicle” value in data set [2] was “No differences in plasma triglyceride levels”. Also, in data set [3], the Tmax is 4.98 min, the peak level (Cmax) was 109 ng/mL, the CL/F is 1170 mL/min/kg and the MRT is 3.28 h. In addition, in data set [3], the half-life is 2.7 h, the k el is 7.22e-05 s⁻¹, the “Vz/F (volume of distribution)” value amounted to 272.63 L/kg and the Vd/F stood at 272 L/kg. Besides, the “time at which maximal plasma concentration was attained (first sampling point)” value in data set [3] came to 5 min. Further, in data set [5], the “area under the IPGTT curve (AUC) vs rats fed high-calorie feed” value is recorded as “decreased significantly” and the “blood glucose levels after glucose load vs control animals fed palatable feed” value is listed as “significantly lower at 30 or/and 60 min after glucose load”.

Source of the values: PMC9266460, “KSK-74: Dual Histamine H3 and Sigma-2 Receptor Ligand with Anti-Obesity Potential” (International Journal of Molecular Sciences, 2022).
